In ChEMBL document CHEMBL4229569, “Structure-Based Design of 1-Heteroaryl-1,3-propanediamine Derivatives as a Novel Series of CC-Chemokine Receptor 5 Antagonists” (J Med Chem, 2018):

Columns and labels:
[1] = molecular target: C-C chemokine receptor type 5 (Homo sapiens, UniProt P51681); assay: Antagonist activity at CCR5 (unknown origin) expressed in HEK293 cells co-expressing Galpha16 assessed as inhibition of RANTES-induced calcium flux preincubated for 10 mins followed by RANTES addition by fluo-4AM-based fluorescence assay; assay type: functional, cell-based
Chain of C-C chemokine receptor type 5 (P51681 whole entry): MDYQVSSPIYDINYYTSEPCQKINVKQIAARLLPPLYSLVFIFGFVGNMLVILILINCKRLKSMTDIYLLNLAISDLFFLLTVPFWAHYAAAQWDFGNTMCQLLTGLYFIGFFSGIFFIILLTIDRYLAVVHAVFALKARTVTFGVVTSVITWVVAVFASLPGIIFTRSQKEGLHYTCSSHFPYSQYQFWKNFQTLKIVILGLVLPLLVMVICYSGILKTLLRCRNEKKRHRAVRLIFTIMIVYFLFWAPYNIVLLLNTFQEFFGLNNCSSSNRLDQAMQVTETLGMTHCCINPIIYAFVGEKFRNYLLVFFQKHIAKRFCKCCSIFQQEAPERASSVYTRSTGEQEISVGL

[2] = Cytotoxicity against human TZM-bl cells after 48 hrs by MTT assay; assay type: cell-based
[3] = Cmax in Sprague-Dawley rat at 20 mg/kg, po by LC-MS/MS analysis; assay type: ADME, organism-based; parameters: dose 20 mg/kg, route oral; details: in vivo
[4] = Tmax in Sprague-Dawley rat at 20 mg/kg, po by LC-MS/MS analysis; assay type: ADME, organism-based; details: in vivo
[5] = Half life in Sprague-Dawley rat at 20 mg/kg, po by LC-MS/MS analysis; assay type: ADME, organism-based; details: in vivo
[6] = AUC (0 to infinity) in Sprague-Dawley rat at 20 mg/kg, po by LC-MS/MS analysis; assay type: ADME, organism-based; parameters: dose 20 mg/kg, route oral, time infinity; details: in vivo
[7] = MRT in Sprague-Dawley rat at 20 mg/kg, po by LC-MS/MS analysis; assay type: ADME, organism-based; details: in vivo
[8] = Oral bioavailability in Sprague-Dawley rat at 20 mg/kg by LC-MS/MS analysis; assay type: ADME, organism-based; details: in vivo
[9] = Cmax in Sprague-Dawley rat at 10 mg/kg, iv by LC-MS/MS analysis; assay type: ADME, organism-based; parameters: dose 10 mg/kg, route intravenous; details: in vivo
[10] = Tmax in Sprague-Dawley rat at 10 mg/kg, iv by LC-MS/MS analysis; assay type: ADME, organism-based; details: in vivo
[11] = Half life in Sprague-Dawley rat at 10 mg/kg, iv by LC-MS/MS analysis; assay type: ADME, organism-based; details: in vivo
[12] = AUC (0 to infinity) in Sprague-Dawley rat at 10 mg/kg, iv by LC-MS/MS analysis; assay type: ADME, organism-based; parameters: dose 10 mg/kg, time infinity, route intravenous; details: in vivo
[13] = MRT in Sprague-Dawley rat at 10 mg/kg, iv by LC-MS/MS analysis; assay type: ADME, organism-based; details: in vivo
[14] = Clearance in Sprague-Dawley rat at 10 mg/kg, iv by LC-MS/MS analysis; assay type: ADME, organism-based; details: in vivo
[15] = Cmax in dog at 15 mg/kg, po by LC-MS/MS analysis; assay type: ADME, organism-based, Canis lupus familiaris; parameters: dose 15 mg/kg, route oral; details: in vivo
[16] = Tmax in dog at 15 mg/kg, po by LC-MS/MS analysis; assay type: ADME, organism-based, Canis lupus familiaris; details: in vivo
[17] = Half life in dog at 15 mg/kg, po by LC-MS/MS analysis; assay type: ADME, organism-based, Canis lupus familiaris; details: in vivo
[18] = AUC (0 to infinity) in dog at 15 mg/kg, po by LC-MS/MS analysis; assay type: ADME, organism-based, Canis lupus familiaris; parameters: dose 15 mg/kg, time infinity, route oral; details: in vivo
[19] = MRT in dog at 15 mg/kg, po by LC-MS/MS analysis; assay type: ADME, organism-based, Canis lupus familiaris; details: in vivo
[20] = Oral bioavailability in dog at 15 mg/kg by LC-MS/MS analysis; assay type: ADME, organism-based, Canis lupus familiaris; details: in vivo
[21] = Half life in dog at 3 mg/kg, iv by LC-MS/MS analysis; assay type: ADME, organism-based, Canis lupus familiaris; details: in vivo
[22] = AUC (0 to infinity) in dog at 3 mg/kg, iv by LC-MS/MS analysis; assay type: ADME, organism-based, Canis lupus familiaris; parameters: dose 3 mg/kg, route intravenous, time infinity; details: in vivo
[23] = MRT in dog at 3 mg/kg, iv by LC-MS/MS analysis; assay type: ADME, organism-based, Canis lupus familiaris; details: in vivo
[24] = Clearance in dog at 3 mg/kg, iv by LC-MS/MS analysis; assay type: ADME, organism-based, Canis lupus familiaris; details: in vivo
Hepatocyte [25] = assay: Metabolic stability in human hepatocytes assessed as compound remaining by UPLC/Q-TOF mass spectrometric analysis; assay type: ADME, cell-based
Hepatocyte [26] = assay: Metabolic stability in monkey hepatocytes assessed as compound remaining by UPLC/Q-TOF mass spectrometric analysis; assay type: ADME, cell-based, Macaca mulatta; details: rhesus monkey
Hepatocyte [27] = assay: Metabolic stability in dog hepatocytes assessed as compound remaining by UPLC/Q-TOF mass spectrometric analysis; assay type: ADME, cell-based, Canis lupus familiaris
Hepatocyte [28] = assay: Metabolic stability in rat hepatocytes assessed as compound remaining by UPLC/Q-TOF mass spectrometric analysis; assay type: ADME, cell-based
[29] = molecular target: Voltage-gated inwardly rectifying potassium channel KCNH2 (Homo sapiens, UniProt Q12809); assay: Inhibition of human ERG expressed in CHO cells at holding potential of -80 mV after 60 secs by patch clamp assay; assay type: cell-based
Chain of Voltage-gated inwardly rectifying potassium channel KCNH2 (Q12809 whole entry): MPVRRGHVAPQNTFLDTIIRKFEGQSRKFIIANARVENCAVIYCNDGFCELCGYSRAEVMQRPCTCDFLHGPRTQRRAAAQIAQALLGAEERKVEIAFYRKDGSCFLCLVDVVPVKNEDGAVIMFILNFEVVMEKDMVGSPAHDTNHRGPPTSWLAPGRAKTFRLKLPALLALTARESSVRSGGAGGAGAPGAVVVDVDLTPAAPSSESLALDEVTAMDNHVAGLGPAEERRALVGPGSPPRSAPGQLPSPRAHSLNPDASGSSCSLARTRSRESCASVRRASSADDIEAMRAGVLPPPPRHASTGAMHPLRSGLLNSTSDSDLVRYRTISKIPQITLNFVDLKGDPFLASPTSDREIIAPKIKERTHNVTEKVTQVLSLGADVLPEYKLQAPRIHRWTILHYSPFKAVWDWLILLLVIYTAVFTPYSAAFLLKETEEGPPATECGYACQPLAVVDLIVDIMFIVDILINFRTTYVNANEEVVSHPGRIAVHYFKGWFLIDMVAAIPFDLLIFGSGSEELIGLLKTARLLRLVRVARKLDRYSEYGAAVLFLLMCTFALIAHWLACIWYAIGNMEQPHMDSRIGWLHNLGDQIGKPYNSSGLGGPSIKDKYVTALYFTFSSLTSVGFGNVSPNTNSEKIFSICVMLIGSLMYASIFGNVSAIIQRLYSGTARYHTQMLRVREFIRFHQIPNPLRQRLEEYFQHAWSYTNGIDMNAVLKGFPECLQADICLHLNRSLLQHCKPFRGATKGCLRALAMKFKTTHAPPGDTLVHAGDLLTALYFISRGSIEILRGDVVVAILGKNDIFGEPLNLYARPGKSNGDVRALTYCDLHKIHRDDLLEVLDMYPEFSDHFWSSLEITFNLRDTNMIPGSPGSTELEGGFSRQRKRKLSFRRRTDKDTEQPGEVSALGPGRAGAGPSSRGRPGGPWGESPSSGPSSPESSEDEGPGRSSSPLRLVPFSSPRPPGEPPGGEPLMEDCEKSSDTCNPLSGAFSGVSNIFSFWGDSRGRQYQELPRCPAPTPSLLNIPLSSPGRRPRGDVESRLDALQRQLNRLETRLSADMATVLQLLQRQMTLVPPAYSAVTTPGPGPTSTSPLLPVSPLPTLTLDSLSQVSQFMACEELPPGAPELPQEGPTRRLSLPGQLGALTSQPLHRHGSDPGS

Cytochrome P450 1A2 = molecular target: T1, Cytochrome P450 1A2 (Homo sapiens, UniProt P05177); assay: Inhibition of CYP1A2 (unknown origin); assay type: ADME
T1 sequence (P05177 whole entry): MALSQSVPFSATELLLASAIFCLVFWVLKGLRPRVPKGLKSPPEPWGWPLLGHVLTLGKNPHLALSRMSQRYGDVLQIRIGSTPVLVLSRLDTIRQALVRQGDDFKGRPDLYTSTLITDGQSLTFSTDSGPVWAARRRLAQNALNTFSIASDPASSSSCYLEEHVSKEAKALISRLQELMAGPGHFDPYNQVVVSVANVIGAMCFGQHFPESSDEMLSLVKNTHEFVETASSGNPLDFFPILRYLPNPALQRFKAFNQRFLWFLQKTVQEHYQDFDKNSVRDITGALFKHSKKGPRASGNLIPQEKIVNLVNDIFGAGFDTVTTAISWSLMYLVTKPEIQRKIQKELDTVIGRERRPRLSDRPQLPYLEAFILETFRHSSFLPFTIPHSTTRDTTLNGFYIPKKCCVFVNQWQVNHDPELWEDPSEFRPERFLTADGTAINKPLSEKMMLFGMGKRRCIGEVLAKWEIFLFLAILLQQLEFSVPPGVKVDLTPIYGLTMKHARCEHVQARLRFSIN

Cytochrome P450 2C9 = Cytochrome P450 2C9 (Homo sapiens, UniProt P11712); assay: Inhibition of CYP2C9 (unknown origin); assay type: ADME
Chain of Cytochrome P450 2C9 (P11712 whole entry): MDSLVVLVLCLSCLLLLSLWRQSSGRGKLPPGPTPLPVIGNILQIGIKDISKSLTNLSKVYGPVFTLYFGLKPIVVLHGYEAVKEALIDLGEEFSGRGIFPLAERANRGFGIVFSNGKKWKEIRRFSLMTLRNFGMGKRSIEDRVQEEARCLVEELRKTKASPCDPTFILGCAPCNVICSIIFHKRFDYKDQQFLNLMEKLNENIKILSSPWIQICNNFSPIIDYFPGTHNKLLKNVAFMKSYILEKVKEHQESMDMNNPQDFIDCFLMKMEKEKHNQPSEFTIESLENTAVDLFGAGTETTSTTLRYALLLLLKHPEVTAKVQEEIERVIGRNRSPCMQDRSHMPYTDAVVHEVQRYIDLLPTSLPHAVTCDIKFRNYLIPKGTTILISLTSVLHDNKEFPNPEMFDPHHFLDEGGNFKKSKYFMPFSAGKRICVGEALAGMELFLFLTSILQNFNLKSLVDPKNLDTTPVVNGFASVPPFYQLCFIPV

Cytochrome P450 2C19 = Cytochrome P450 2C19 (Homo sapiens, UniProt P33261); assay: Inhibition of CYP2C19 (unknown origin); assay type: ADME
Chain of Cytochrome P450 2C19 (P33261 whole entry): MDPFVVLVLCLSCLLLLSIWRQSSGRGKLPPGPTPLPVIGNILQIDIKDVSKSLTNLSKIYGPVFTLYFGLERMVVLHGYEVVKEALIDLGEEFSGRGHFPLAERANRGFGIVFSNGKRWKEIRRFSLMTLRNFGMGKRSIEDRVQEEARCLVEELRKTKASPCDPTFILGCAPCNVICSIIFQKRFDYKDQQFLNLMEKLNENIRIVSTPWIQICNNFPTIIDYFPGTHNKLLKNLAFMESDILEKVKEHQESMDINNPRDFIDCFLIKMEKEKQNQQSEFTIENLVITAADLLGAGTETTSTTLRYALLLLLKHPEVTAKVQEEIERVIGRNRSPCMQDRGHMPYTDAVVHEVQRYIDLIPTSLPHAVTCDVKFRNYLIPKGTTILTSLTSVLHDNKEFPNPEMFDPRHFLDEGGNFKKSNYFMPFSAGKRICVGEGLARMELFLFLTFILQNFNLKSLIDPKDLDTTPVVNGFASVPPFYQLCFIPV

Cytochrome P450 2D6 = Cytochrome P450 2D6 (Homo sapiens, UniProt P10635); assay: Inhibition of CYP2D6 (unknown origin); assay type: ADME
Chain of Cytochrome P450 2D6 (P10635 whole entry): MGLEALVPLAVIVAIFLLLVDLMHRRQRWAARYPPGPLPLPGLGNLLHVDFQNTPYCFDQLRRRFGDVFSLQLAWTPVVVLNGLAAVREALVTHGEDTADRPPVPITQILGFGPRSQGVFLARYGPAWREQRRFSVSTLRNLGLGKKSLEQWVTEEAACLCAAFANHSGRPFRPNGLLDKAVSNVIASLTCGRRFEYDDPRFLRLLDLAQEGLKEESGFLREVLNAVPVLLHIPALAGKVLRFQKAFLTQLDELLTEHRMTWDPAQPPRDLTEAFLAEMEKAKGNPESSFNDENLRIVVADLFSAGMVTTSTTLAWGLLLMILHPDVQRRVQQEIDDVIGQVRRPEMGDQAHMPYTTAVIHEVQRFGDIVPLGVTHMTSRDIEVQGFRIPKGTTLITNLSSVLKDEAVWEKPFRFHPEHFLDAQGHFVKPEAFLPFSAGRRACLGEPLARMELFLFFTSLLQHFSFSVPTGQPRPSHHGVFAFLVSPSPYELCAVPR

Cytochrome P450 3A4 [30] = molecular target: T2, Cytochrome P450 3A4 (Homo sapiens, UniProt P08684); assay: Inhibition of CYP3A4 (unknown origin) using midazolam as substrate; assay type: ADME
T2 sequence (P08684 whole entry): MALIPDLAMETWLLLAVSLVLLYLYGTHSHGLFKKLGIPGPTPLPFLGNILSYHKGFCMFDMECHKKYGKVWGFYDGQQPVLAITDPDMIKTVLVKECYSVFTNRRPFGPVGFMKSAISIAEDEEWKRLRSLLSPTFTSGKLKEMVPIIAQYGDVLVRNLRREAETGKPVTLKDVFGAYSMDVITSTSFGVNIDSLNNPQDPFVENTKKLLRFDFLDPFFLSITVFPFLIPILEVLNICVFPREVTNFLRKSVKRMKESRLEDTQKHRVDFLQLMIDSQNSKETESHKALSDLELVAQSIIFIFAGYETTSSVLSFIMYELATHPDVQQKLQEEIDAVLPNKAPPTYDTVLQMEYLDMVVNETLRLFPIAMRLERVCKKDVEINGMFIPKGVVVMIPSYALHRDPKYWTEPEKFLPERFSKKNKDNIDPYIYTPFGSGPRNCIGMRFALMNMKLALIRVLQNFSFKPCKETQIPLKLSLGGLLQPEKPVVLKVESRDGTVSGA

Cytochrome P450 3A4 [31] = molecular target: T2, Cytochrome P450 3A4; assay: Inhibition of CYP3A4 (unknown origin) using testosterone as substrate; assay type: ADME
Rattus norvegicus = assay: Toxicity in rat assessed as mortality at 2000 mg/kg, po administered as single dose and measured during 14 days observation period; assay type: organism-based; details: in vivo, 336 h
Canis familiaris = assay: Toxicity in po dosed dog assessed as drug tolerability administered as single dose; assay type: organism-based, Canis lupus familiaris; details: in vivo
in vitro [32] = details: human, TZM-bl cells
Description: Therapeutic index, ratio of CC50 for human TZM-bl cells to EC50 for CCR5-dependent HIV1 SF162 infected in human TZM-bl cells

in vitro [33] = details: human, PBMC
Description: Therapeutic index, ratio of CC50 for human PBMC to IC50 for CCR5-dependent HIV1 SF162 infected in human PBMC cells

in vitro [34] = details: human, HOS cells
Description: Therapeutic index, ratio of CC50 for human HOS cells to IC50 for CCR5-dependent HIV1 SF162 infected in human HOS cells

in vitro [35] = details: human, PBMC; remark: listed apart in the source
Description: Therapeutic index, ratio of CC50 for human PBMC to IC50 for CCR5-dependent HIV1 KM018 infected in human PBMC

in vitro [36] = details: human, PBMC; remark: listed apart in the source
Description: Therapeutic index, ratio of CC50 for human PBMC to IC50 for CCR5-dependent HIV1 Ba-L infected in human PBMC

in vitro [37] = details: human, HOS cells; remark: listed apart in the source
Description: Therapeutic index, ratio of CC50 for human HOS cells to IC50 for CCR5-dependent HIV1 Ba-L infected in human HOS cells

in vitro [38] = details: human, PM1 cells
Description: Therapeutic index, ratio of CC50 for human PM1 cells to IC50 for CCR5-dependent HIV1 Ba-L infected in human PM1 cells

[39] = test system: Human immunodeficiency virus 1; assay: microbe, parasite or virus in culture; details: Human immunodeficiency virus 1, SF162, TZM-bl, 48 h
Description: Antiviral activity against CCR5-dependent HIV1 SF162 infected in human TZM-bl cells assessed as reduction in virus infection measured after 48 hrs post infection by luciferase reporter gene assay

[40] = test system: Human immunodeficiency virus 1; assay: microbe, parasite or virus in culture; details: Human immunodeficiency virus 1, SF162, PBMC, 168 h
Description: Antiviral activity against CCR5-dependent HIV1 SF162 infected in human PBMC assessed as reduction in virus infection measured after 7 days by luciferase reporter gene assay

[41] = test system: Human immunodeficiency virus 1; assay: microbe, parasite or virus in culture; details: Human immunodeficiency virus 1, SF162, HOS, 120 h
Description: Antiviral activity against CCR5-dependent HIV1 SF162 infected in human HOS cells assessed as reduction in virus infection measured after 5 days by luciferase reporter gene assay

[42] = test system: Human immunodeficiency virus 1; assay: microbe, parasite or virus in culture; details: Human immunodeficiency virus 1, KM018, PBMC, 168 h
Description: Antiviral activity against CCR5-dependent HIV1 KM018 infected in human PBMC assessed as reduction in virus infection measured after 7 days by luciferase reporter gene assay

[43] = test system: Human immunodeficiency virus 1; assay: microbe, parasite or virus in culture; details: Human immunodeficiency virus 1, Ba-L, PBMC, 168 h
Description: Antiviral activity against CCR5-dependent HIV1 Ba-L infected in human PBMC assessed as reduction in virus infection measured 7 days by luciferase reporter gene assay

[44] = test system: Human immunodeficiency virus 1; assay: microbe, parasite or virus in culture; details: Human immunodeficiency virus 1, Ba-L, HOS, 120 h
Description: Antiviral activity against CCR5-dependent HIV1 Ba-L infected in human HOS cells assessed as reduction in virus infection measured after 5 days by luciferase reporter gene assay

[45] = test system: Human immunodeficiency virus 1; assay: microbe, parasite or virus in culture; details: Human immunodeficiency virus 1, Ba-L, PM1, 120 h
Description: Antiviral activity against CCR5-dependent HIV1 Ba-L infected in human PM1 cells assessed as reduction in virus infection measured after 5 days by luciferase reporter gene assay

Compound: Cc1nnc(C(C)C)n1[C@@H]1C[C@H]2CC[C@@H](C1)N2CC[C@H](NC(=O)C1CCC(F)(F)CC1)c1ccsc1
- IC50 [1]: 3 nM
- CC50 at 48 h [2]: > 200000 nM
- Cmax [3]: 306 ng/mL
- Tmax [4]: 2 h
- half-life [5]: 1.6 h
- AUC(0-inf) [6]: 1260 ng·h/mL
- MRT [7]: 2.6 h
- bioavailability [8]: 14.5%
- Cmax [9]: 3780 ng/mL
- Tmax [10]: 0.25 h
- half-life [11]: 1.02 h
- AUC(0-inf) [12]: 4160 ng·h/mL
- MRT [13]: 0.8 h
- clearance [14]: 16.7 mL/min/kg
- Cmax [15]: 4610 ng/mL
- Tmax [16]: 0.8 h
- half-life [17]: 3.9 h
- AUC(0-inf) [18]: 5520 ng·h/mL
- MRT [19]: 2.1 h
- bioavailability [20]: 10%
- half-life [21]: 1.7 h
- AUC(0-inf) [22]: 10900 ng·h/mL
- MRT [23]: 1.6 h
- clearance [24]: 5 mL/min/kg
- Stability (Hepatocyte [25]): > 99%
- Stability (Hepatocyte [26]): > 98%
- Stability (Hepatocyte [27]): > 97%
- Stability (Hepatocyte [28]): > 97%
- IC50 [29]: > 40000 nM
- IC50 (Cytochrome P450 1A2): > 25000 nM
- IC50 (Cytochrome P450 2C9): > 25000 nM
- IC50 (Cytochrome P450 2C19): > 25000 nM
- IC50 (Cytochrome P450 2D6): > 25000 nM
- IC50 (Cytochrome P450 3A4 [30]): > 25000 nM
- IC50 (Cytochrome P450 3A4 [31]): > 25000 nM
- Activity (Rattus norvegicus): Non-Toxic
- Activity (Canis familiaris): Non-Toxic
- selectivity ratio (in vitro [32]): > 130000
- selectivity ratio (in vitro [33]): 160000
- selectivity ratio (in vitro [34]): 69000
- selectivity ratio (in vitro [35]): 290000
- selectivity ratio (in vitro [36]): 220000
- selectivity ratio (in vitro [37]): 280000
- selectivity ratio (in vitro [38]): 260000
- IC50 [39]: 1.5 nM
- IC50 [40]: 4.3 nM
- IC50 [41]: 4.9 nM
- IC50 [42]: 2.3 nM
- IC50 [43]: 3 nM
- IC50 [44]: 1.2 nM
- IC50 [45]: 2.8 nM
